Legend:
[1] = tested on: RPMI8226 cells (myeloma cell line); experiment: Cell death inducing effect on RPMI8226 cells, trypan blue staining; assay type: cell-based
Description: (§1) RPMI8226 cells (myeloma cell line) were cultured under 5% CO2 at 37° C. The culture medium used RPMI-1640 medium with 100 μg/mL penicillin, 100 U/mL streptomycin and fetal bovine serum. RPMI8226 cells were seeded into 96-well plates and incubated with each concentration of the compounds was added, and cell viability was determined by the trypan blue staining.
For controls, only 0.5% DMSO (diluted in PBS) used to dissolve the compounds was added. For each concentration, each bar line is indicated by an arrow with the sign “n, a, 1, 2, 3, 4, 5, 6, 7, 8, 9, 10, 11, 12” from left to right. The “1, 3, 5, 7, 9, 11” are omitted from the graph, but the sign “1” shall be indicated by an arrow between the signs “a” and “2”, the sign “3” between the signs “2” and “4”, and other odd numbers shall likewise be indicated by arrows between even numbers before and after.
The sign “n” is the norathyriol (formula (n)) administration group, the sign “a” is the mangiferin 8a (formula (a)) administration group, the sign “1” is the yk-7 (formula (1)) administration group, the sign “2” is the yk-8-1 (formula (2)) administration group, the sign “3” is the yk-8-3 (formula (3)) administration group, the sign “4” is the M7 (formula (4)) administration group, the sign “5” is the M9 (formula (5)) administration group, the sign “6” is the M11 (formula (6)) administration group, the sign “7” is the M12 (formula (7)) administration group, the sign “8” is the M14 (formula (8)) administration group, the sign “9” is the M15 (formula (9)) administration group, the sign “10” is the M16 (formula (10)) administration group, the sign “11” is the M18 (formula (11)) administration group, the sign “12” is the M19 (formula (12)) administration group, respectively. The IC50 values for each compound is also listed in the upper right corner of the figure.

[2] = tested on: immunoglobulin free λ light chain; experiment: Immunoglobulin free λ light chain secretion in KMS-28BM cells, ELISA; assay type: cell-based, human; settings: KMS-28BM culture supernatant after 10 days, control 48 μg/L
Description: The inhibitory effect of each compound on immunoglobulin free λ light chain secretion was examined by enzyme-linked immunosorbent assay (ELISA) using KMS-28BM cells.
As a control, compounds untreated KMS-28BM cells were seeded in 75 cm^2 flasks and incubated for 10 days at 37° C. and 5% CO2. KMS-28BM cells were seeded into 75 cm^2 flasks and pre-cultured for 4 h. After incubation, KMS-28BM cells were treated with […], 0.05 μM M9, 0.1 μM yk-7, 0.1 μM yk-8-3, 50 μM yk-8-1, 0.5 μM M11, […], 0.005 μM M14, 0.005 μM M15, 0.005 μM M16, 0.5 μM M18, and 0.5 μM M19 at final concentrations, and incubated for 10 days at 37° C. and 5% CO2. After 10 days of incubation, the culture supernatant was collected and immunoglobulin free λ light chain secretion was measured by ELISA. This measurement was performed using a human anti-λchain antibody ELISA kit (Funakoshi).

[3] = tested on: immunoglobulin free λ light chain; experiment: Immunoglobulin free λ light chain secretion in L363 cells, ELISA; assay type: cell-based, human; settings: L363 culture supernatant after 10 days, control 145 μg/L
Description: The inhibitory effect of each compound on immunoglobulin free λ light chain secretion was examined by enzyme-linked immunosorbent assay (ELISA) using L363 cells.
As a control, compounds untreated L363 cells were seeded in 75 cm^2 flasks and incubated for 10 days at 37° C. and 5% CO2. L363 cells were seeded into 75 cm^2 flasks and pre-cultured for 4 h. After incubation, L363 cells were treated with 0.1 μM M7, 0.05 μM M9, 0.1 μM yk-7, 0.1 μM yk-8-3, 50 μM yk-8-1, 0.1 μM M11, 0.01 μM M12, 0.005 μM M14, 0.005 μM M15, 0.005 μM M16, 1 μM M18, and 1 μM M19 at final concentrations, and incubated for 10 days at 37° C. and 5% CO2. After 10 days of incubation, the culture supernatant was collected and immunoglobulin free λ light chain secretion was measured by ELISA. This measurement was performed using a human anti-λ chain antibody ELISA kit (Funakoshi).

[4] = tested on: MEC-1 cells (chronic lymphocytic leukemia cell line); experiment: Cell death inducing effect on MEC-1 cells, trypan blue staining; assay type: cell-based; settings: MEC-1 (CLL), cell viability
Description: as §1, with “MEC-1” for “RPMI8226”, “(chronic lymphocytic leukemia” for “(myeloma”
(§2) For controls, only 0.5% DMSO (diluted in PBS) used to dissolve the compounds was added. For each concentration, the codes “5, 6, 7, 8, 9, 10, 11, 12” and arrows are shown from left to right. The sign “5” is the M9 (formula (5)) administration group, the sign “6” is the M11 (formula (6)) administration group, the sign “7” is the M12 (formula (7)) administration group, the sign “8” is the M14 (formula (8)) administration group, the sign “9” is the M15 (formula (9)) administration group, the sign “10” is the M16 (formula (10)) administration group, the sign “11” is the M18 (formula (11)) administration group, the sign “12” is the M19 (formula (12)) administration group, respectively. The IC50 values for each compound is also listed in the upper right corner of the figure.

[5] = tested on: HUT-78 cells (peripheral T lymphoma cell line); experiment: Cell death inducing effect on HUT-78 cells, trypan blue staining; assay type: cell-based; settings: HUT-78 (peripheral T-cell lymphoma), cell viability
Description: HUT-78 cells (peripheral T lymphoma cell line) were cultured under 5% CO2 at 37° C.
The culture medium used RPMI-1640 medium with 100 μg/mL penicillin, 100 U/mL streptomycin and fetal bovine serum. HUT-78 cells were seeded into 96-well plates and incubated with each concentration of the compounds was added, and cell viability was determined by the trypan blue staining.
as §2

[6] = tested on: ATN-1 cells (adult T cell leukemia cell line); experiment: Cell death inducing effect on ATN-1 cells, trypan blue staining; assay type: cell-based; settings: ATN-1 (ATL), cell viability
Description: as §1, with “ATN-1” for “RPMI8226”, “(adult T cell leukemia” for “(myeloma”
as §2

[7] = Homo sapiens, RPMI-8226, cell viability

Row | Compound | IC50 [1, 7] [nM] | IC50 ([4]; Homo sapiens, MEC1) [nM] | IC50 ([5]; Homo sapiens, HuT78) [nM] | IC50 ([6]; Homo sapiens) [nM] | also measured
1 | 1,2′,3′,4′,6-penta-O-propionylmangiferin [Compound 8a, reference compound] | – | – | – | – | IC50 ([1]; cell viability): 7090 nM
2 | CCC(=O)OC[C@H]1O[C@@H](c2c(OC(=O)CC)cc3oc4cc(OC(=O)CC)c(OC(=O)CC)cc4c(=O)c3c2OC(=O)CC)[C@H](OC(=O)CC)[C@@H](OC(=O)CC)[C@@H]1OC(=O)CC [Compound M7, 1,3,2′,3′,4′,6,6′,7-octa-O-propionylmangiferin] | 6420 | – | – | – | λ chain secretion ([2]; M7 group, unit printed g/L): 2.1e+06 µg/L; λ chain secretion ([3]; M7 group, unit printed g/L): 2.3e+07 µg/L
3 | CCC(=O)OC[C@H]1O[C@@H](c2c(O)cc3oc4cc(O)c(O)cc4c(=O)c3c2O)[C@H](OC(=O)CC)[C@@H](OC(=O)CC)[C@@H]1OC(=O)CC [Compound M9, 2′,3′,4′,6′-tetra-O-propionylmangiferin] | 696 | 454 | 925 | 589 | –
4 | CCCC(=O)OC[C@H]1O[C@@H](c2c(OC(=O)CCC)cc3oc4cc(OC(=O)CCC)c(OC(=O)CCC)cc4c(=O)c3c2OC(=O)CCC)[C@H](OC(=O)CCC)[C@@H](OC(=O)CCC)[C@@H]1OC(=O)CCC [Compound M11, 1,3,2′,3′,4′,6,6′,7-octa-O-butyrylmangiferin] | – | – | – | – | IC50 ([1]; cell viability): 3210 nM; IC50 [4]: 575 nM; IC50 [5]: 905 nM; IC50 [6]: 1850 nM; λ chain secretion ([2]; compounds at 0.005-50 μM): 1.1 µg/L; λ chain secretion ([3]; compounds at 0.005-50 μM): 11 µg/L
5 | CCCC(=O)OC[C@H]1O[C@@H](c2c(O)cc3oc4cc(O)c(O)cc4c(=O)c3c2OC(=O)CCC)[C@H](OC(=O)CCC)[C@@H](OC(=O)CCC)[C@@H]1OC(=O)CCC [Compound M12, 1,2′,3′,4′,6-penta-O-butyrylmangiferin] | 291 | 12 | 21 | 15 | –
6 | CCCC(=O)OC[C@H]1O[C@@H](c2c(O)cc3oc4cc(O)c(O)cc4c(=O)c3c2O)[C@H](OC(=O)CCC)[C@@H](OC(=O)CCC)[C@@H]1OC(=O)CCC [Compound M14, 2′,3′,4′,6′-tetra-O-butyrylmangiferin] | 121 | 8 | 8 | 8 | –
7 | CC(C)(C)C(=O)OC[C@H]1O[C@@H](c2c(O)cc3oc4cc(O)c(O)cc4c(=O)c3c2O)[C@H](OC(=O)C(C)(C)C)[C@@H](OC(=O)C(C)(C)C)[C@@H]1OC(=O)C(C)(C)C [Compound M15, 2′,3′,4′,6′-tetra-O-pivaloylmangiferin] | 183 | 9 | 22 | 11 | –
8 | CCCCO[C@@H]1[C@@H](OCCCC)[C@H](c2c(O)cc3oc4cc(O)c(O)cc4c(=O)c3c2O)O[C@H](COC(=O)CCC)[C@H]1OC(=O)CCC [Compound M16, 2′,3′-di-O-butyl-4′,6′-di-O-butyrylmangiferin] | 91 | 7 | 9 | 7 | –
9 | O=c1c2cc(O)c(O)cc2oc2cc(O)cc(OCCO)c12 [Compound M18, 3,6,7-trihydroxy-1-(2-hydroxyethoxy)-9H-xanthen-9-one] | 6870 | 3120 | 4540 | 2890 | –
10 | C=CCOc1cc(O)cc2oc3cc(O)c(O)cc3c(=O)c12 [Compound M19, 1-allyloxy-3,6,7-trihydroxy-9H-xanthen-9-one] | 9540 | 6890 | 6740 | 4520 | –
11 | O=c1c2cc(O)c(O)cc2oc2cc(O)cc(O)c12 [norathyriol, reference compound] | 8870 | – | – | – | –
12 | CCCCC(=O)OC[C@H]1O[C@@H](c2c(O)cc3oc4cc(O)c(O)cc4c(=O)c3c2O)[C@H](OC(=O)CCCC)[C@@H](OC(=O)CCCC)[C@@H]1OC(=O)CCCC [yk-7, 2′,3′,4′,6′-tetra-O-valerylmangiferin] | 2460 | – | – | – | –
13 | CCCCC(=O)OC[C@H]1O[C@@H](c2c(OC(=O)CCCC)cc3oc4cc(OC(=O)CCCC)c(OC(=O)CCCC)cc4c(=O)c3c2OC(=O)CCCC)[C@H](OC(=O)CCCC)[C@@H](OC(=O)CCCC)[C@@H]1OC(=O)CCCC [yk-8-1, 1,3,2′,3′,4′,6,6′,7-octa-O-valerylmangiferin] | – | – | – | – | IC50 ([1]; cell viability): > 100000 nM; λ chain secretion ([2]; compounds at 0.005-50 μM): 35 µg/L; λ chain secretion ([3]; compounds at 0.005-50 μM): 119 µg/L
14 | CCCCC(=O)OC[C@H]1O[C@@H](c2c(O)cc3oc4cc(O)c(O)cc4c(=O)c3c2OC(=O)CCCC)[C@H](OC(=O)CCCC)[C@@H](OC(=O)CCCC)[C@@H]1OC(=O)CCCC [yk-8-3, 1,2′,3′,4′,6-penta-O-valerylmangiferin] | 2270 | – | – | – | –
